Test results taken from patent US8772199B2, “Herbicidal compositions for tolerant or resistant maize crops” (Bayer Intellectual Property GmbH, priority 1998, dated 2014).

Experiments:
Assay in all cases: Field trial with maize, herbicidal action
Format in all cases: in vivo
[1] = system: Cassia obtusifolia; settings: 925 g of a.s./ha; application 3-leaf stage; scoring 21 days after application
Method: (§1) Transgenic maize plants with a resistance to one or more herbicides (A) together with typical weed plants were grown in the open on 2×5 m plots under natural field conditions; alternatively, weed infestation occurred naturally when the maize plants were grown.
(§2) […] The damage to, and the development of, all aerial parts of the plants was recorded. Scoring was done on the basis of a percentage sale (100% action=all plants destroyed; 50% action=50% of the plants and green parts of the plants destroyed; 0% action=no recognizable effect=like control plot. The mean of the score values of in each case 4 plots was calculated.

[2] = system: Fagopyrum esculentum; settings: 2.5 g of a.s./ha; application 2- to 4-leaf stage; scoring 26 days after application
Method: as §1, §2

[3] = system: Lamium amplexicaule; settings: 2.5 g of a.s./ha; application 1-leaf stage; scoring 17 days after application
Method: as §1, §2

[4] = system: Lolium multiflorum; settings: 2.5 g of a.s./ha; application 2- to 4-leaf stage; scoring 26 days after application
Method: as §1, §2

SMILES	Herbicidal action (%) against Cassia obtusifolia [1] [%]	Herbicidal action (%) against Fagopyron esculentum [2] [%]	Herbicidal action (%) against Lamium amplexicaule [3] [%]	Herbicidal action (%) against Lolium multiflorum [4] [%]
CCC(CC)Nc1c([N+](=O)[O-])cc(C)c(C)c1[N+](=O)[O-] [(B2.1), N-(1-ethylpropyl)-2,6-dinitro-3,4-xylidine]	0	–	–	–
COc1nc(C)nc(NC(=O)NS(=O)(=O)c2cc(I)ccc2C(=O)O)n1 [(B2.3), 4-iodo-2-(4-methoxy-6-methyl-1,3,5-triazin-2-ylcarbamoylsulfamoyl)benzoic acid]	–	85	55	84
